# Measurements as given in ChEMBL document CHEMBL3779887, “Robenidine Analogues as Gram-Positive Antibacterial Agents” (J Med Chem, 2016).
# Active and inactive are the calls of the source. No cut-off for these calls is given here.
# Legend:
# Escherichia coli [1] = experiment: Antibacterial activity against Escherichia coli ATCC 25922 after 20 to 24 hrs in presence of polymyxin B nonapeptide; format: functional
# Pseudomonas aeruginosa [2] = experiment: Antibacterial activity against Pseudomonas aeruginosa ATCC 27853 after 20 to 24 hrs; format: functional
# Pseudomonas aeruginosa [3] = experiment: Antibacterial activity against Pseudomonas aeruginosa ATCC 27853 after 20 to 24 hrs in presence of polymyxin B nonapeptide; format: functional
# Escherichia coli [4] = experiment: Antibacterial activity against Escherichia coli ATCC 25922 after 20 to 24 hrs; format: functional
# [5] = Half life of compound in mouse liver microsomes; format: ADME
# Staphylococcus aureus [6] = experiment: Bactericidal activity against methicillin-sensitive Staphylococcus aureus ATCC 29213 assessed as log reduction in bacterial cell number at 2 times MIC after 8 hrs by time-kill curve analysis; format: functional
# Staphylococcus aureus [7] = experiment: Antibacterial activity against methicillin-sensitive Staphylococcus aureus ATCC 29213 after 20 to 24 hrs in presence of 50% heat inactivated bovine serum
# [8] = Half life of compound in human liver microsomes; format: ADME
# Staphylococcus aureus [9] = experiment: Bactericidal activity against Methicillin-sensitive Staphylococcus aureus ATCC 29213 assessed as log reduction in bacterial cell number at MIC after 8 hrs by time kill curve analysis
# Staphylococcus aureus [10] = experiment: Antibacterial activity against Staphylococcus aureus ATCC 29213 after 20 to 24 hrs in presence of 2% heat inactivated bovine serum; format: functional
# Staphylococcus aureus [11] = experiment: Antibacterial activity against methicillin-resistant Staphylococcus aureus after 20 to 24 hrs; format: functional
# [12] = Cytotoxicity against human HepG2 cells after 24 hrs by WST-1 based colorimetric assay; format: cell-based
# Staphylococcus aureus [13] = experiment: Antibacterial activity against methicillin-sensitive Staphylococcus aureus ATCC 29213 after 20 to 24 hrs in presence of 50% heat inactivated bovine serum; remark: listed apart in the source
# Staphylococcus aureus [14] = experiment: Ratio of MBC for methicillin-sensitive Staphylococcus aureus ATCC 6538 to MIC90 for methicillin-sensitive Staphylococcus aureus ATCC 6538; format: functional
# Staphylococcus aureus [15] = experiment: Ratio of MBC for methicillin-sensitive Staphylococcus aureus ATCC 49775 to MIC90 for methicillin-sensitive Staphylococcus aureus ATCC 49775; format: functional
# Staphylococcus aureus [16] = experiment: Bactericidal activity against Methicillin-sensitive Staphylococcus aureus ATCC 29213 assessed as log reduction in bacterial cell number at 8 times MIC after 24 hrs by time-kill curve analysis; format: functional, organism-based
# Enterococcus = experiment: Antibacterial activity against vancomycin-resistant Enterococcus after 20 to 24 hrs; format: functional
# Staphylococcus aureus [17] = experiment: Bactericidal activity against […] Staphylococcus aureus clinical isolate USA300 assessed as log reduction in bacterial cell number at 2 times MIC after 24 hrs by time-kill curve analysis; format: functional, organism-based
# Staphylococcus aureus [18] = experiment: Antibacterial activity against methicillin-sensitive Staphylococcus aureus ATCC 49775 after 20 to 24 hrs in presence of 50% heat inactivated bovine serum; format: functional
# [19] = Toxicity in sheep erythrocytes assessed as hemolysis at 600 uM after 30 mins; format: cell-based, Ovis aries; settings: erythrocyte, 0.5 h
# Staphylococcus aureus [20] = experiment: Antibacterial activity against methicillin-resistant Staphylococcus aureus clinical isolate after 20 to 24 hrs; format: functional
# [21] = Lipophilicity, logD of the compound at pH 3; format: physicochemical; settings: buffer
# [22] = Intrinsic clearance in human liver microsomes assessed per mg of protein; format: ADME; settings: read-out: CLH
# Staphylococcus aureus [23] = experiment: Bactericidal activity against methicillin-sensitive Staphylococcus aureus ATCC 25923 after 24 and 48 hrs; format: functional
# Staphylococcus aureus [24] = experiment: Bactericidal activity against methicillin-sensitive Staphylococcus aureus ATCC 49775 after 24 and 48 hrs; format: functional
# Staphylococcus aureus [25] = experiment: Bactericidal activity against […] Staphylococcus aureus clinical isolate USA300 assessed as log reduction in bacterial cell number at 8 times MIC after 8 hrs by time-kill curve analysis; format: functional
# Staphylococcus aureus [26] = experiment: Bactericidal activity against methicillin-sensitive Staphylococcus aureus ATCC 29213 assessed as log reduction in bacterial cell number at MIC after 8 hrs by time-kill curve analysis; format: functional
# [27] = Solubility of the compound at pH 6.5; format: physicochemical; settings: buffer
# Staphylococcus aureus [28] = experiment: Bactericidal activity against […] Staphylococcus aureus clinical isolate USA300 assessed as log reduction in bacterial cell number at 2 times MIC after 8 hrs by time-kill curve analysis; format: functional
# Staphylococcus aureus [29] = experiment: Antibacterial activity against methicillin-sensitive Staphylococcus aureus ATCC 25923 after 20 to 24 hrs; format: functional
# Staphylococcus aureus [30] = experiment: Bactericidal activity against methicillin-sensitive Staphylococcus aureus ATCC 29213 assessed as log reduction in bacterial cell number at 4 times MIC after 8 hrs by time-kill curve analysis; format: functional
# Staphylococcus aureus [31] = experiment: Antibacterial activity against methicillin-sensitive Staphylococcus aureus ATCC 6538 after 20 to 24 hrs; format: functional
# Staphylococcus aureus [32] = experiment: Bactericidal activity against methicillin-sensitive Staphylococcus aureus ATCC 29213 assessed as log reduction in bacterial cell number at 8 times MIC after 8 hrs by time-kill curve analysis; format: functional
# Staphylococcus aureus [33] = experiment: Bactericidal activity against […] Staphylococcus aureus clinical isolate USA300 assessed as log reduction in bacterial cell number at MIC after 24 hrs by time-kill curve analysis; format: functional, organism-based
# Staphylococcus aureus [34] = experiment: Bactericidal activity against methicillin-sensitive Staphylococcus aureus ATCC 6538 after 24 and 48 hrs; format: functional
# Staphylococcus aureus [35] = experiment: Ratio of MBC for methicillin-sensitive Staphylococcus aureus ATCC 25923 to MIC90 for methicillin-sensitive Staphylococcus aureus ATCC 25923; format: functional
# [36] = Solubility of the compound at pH 2; format: physicochemical; settings: buffer
# Staphylococcus aureus [37] = experiment: Antibacterial activity against methicillin-sensitive Staphylococcus aureus ATCC 29213 after 20 to 24 hrs; format: functional
# Staphylococcus aureus [38] = experiment: Bactericidal activity against […] Staphylococcus aureus clinical isolate USA300 assessed as log reduction in bacterial cell number at 4 times MIC after 24 hrs by time-kill curve analysis; format: functional, organism-based
# Staphylococcus aureus [39] = experiment: Antibacterial activity against methicillin-sensitive Staphylococcus aureus ATCC 6538 after 20 to 24 hrs in presence of 50% heat inactivated bovine serum; format: functional
# Staphylococcus aureus [40] = experiment: Bactericidal activity against Methicillin-sensitive Staphylococcus aureus ATCC 29213 assessed as log reduction in bacterial cell number at 2 times MIC after 24 hrs by time kill curve analysis; format: functional, organism-based
# Staphylococcus aureus [41] = experiment: Bactericidal activity against […] Staphylococcus aureus clinical isolate USA300 assessed as log reduction in bacterial cell number at 4 times MIC after 8 hrs by time-kill curve analysis; format: functional
# Staphylococcus aureus [42] = experiment: Bactericidal activity against methicillin-resistant Staphylococcus aureus clinical isolate after 24 and 48 hrs; format: functional
# Staphylococcus aureus [43] = experiment: Bactericidal activity against methicillin-sensitive Staphylococcus aureus clinical isolate USA300 assessed as log reduction in bacterial cell number at MIC after 8 hrs by time-kill curve analysis; format: functional
# [44] = Selectivity index, ratio of GI50 for human HEL299 cells to MIC50 for methicillin-resistant Staphylococcus aureus clinical isolate; format: functional, HEL 299
# [45] = Lipophilicity, logD of the compound at pH 7.4; format: physicochemical; settings: buffer
# Staphylococcus aureus [46] = experiment: Ratio of MBC for methicillin-sensitive Staphylococcus aureus ATCC 29213 to MIC90 for methicillin-sensitive Staphylococcus aureus ATCC 29213; format: functional
# Staphylococcus aureus [47] = experiment: Bactericidal activity against Methicillin-sensitive Staphylococcus aureus ATCC 29213 assessed as log reduction in bacterial cell number at 4 times MIC after 24 hrs by time kill curve analysis; format: functional, organism-based
# [48] = Selectivity index, ratio of GI50 for human HEL299 cells to MIC50 for methicillin-sensitive Staphylococcus aureus clinical isolate; format: functional, HEL 299
# [49] = Cytotoxicity against human HEL299 cells after 24 hrs by WST-1 based colorimetric assay; format: cell-based, HEL 299
# [50] = Selectivity index, ratio of GI50 for human HepG2 cells to MIC50 for methicillin-resistant Staphylococcus aureus clinical isolate; format: functional
# [51] = Selectivity index, ratio of GI50 for human HepG2 cells to MIC50 for methicillin-sensitive Staphylococcus aureus clinical isolate; format: functional
# [52] = Intrinsic clearance in mouse liver microsomes assessed per mg of protein; format: ADME; settings: read-out: CLH
# Staphylococcus aureus [53] = experiment: Antibacterial activity against methicillin-sensitive Staphylococcus aureus ATCC 29213 after 20 to 24 hrs in presence of 50% heat inactivated bovine serum; format: functional
# Staphylococcus aureus [54] = experiment: Bactericidal activity against methicillin-sensitive Staphylococcus aureus ATCC 29213 after 24 and 48 hrs; format: functional
# Staphylococcus aureus [55] = experiment: Antibacterial activity against methicillin-sensitive Staphylococcus aureus ATCC 49775 after 20 to 24 hrs; format: functional
# Staphylococcus aureus [56] = experiment: Bactericidal activity against […] Staphylococcus aureus clinical isolate USA300 assessed as log reduction in bacterial cell number at 8 times MIC after 24 hrs by time-kill curve analysis; format: functional, organism-based
smiles,measurement,setting,value
CC(C)/N=c1\cc2n(-c3ccc(Cl)cc3)c3ccccc3nc-2cc1Nc1ccc(Cl)cc1 [CLOFAZIMINE],MIC90,Escherichia coli [1],4.2 µM
same,MIC90,Pseudomonas aeruginosa [2],> 250 µM
same,MIC90,Pseudomonas aeruginosa [3],8.4 µM
same,MIC90,Escherichia coli [4],> 250 µM
CC(C)(C)c1ccc(/C=N/NC(=N)N/N=C/c2ccc(C(C)(C)C)cc2)cc1,half-life,[5],25 min
same,Activity,Staphylococcus aureus [6],>=4 log10CFU/ml
same,MIC90,Staphylococcus aureus [7],> 250 µM
same,half-life,[8],20 min
same,MIC90,Escherichia coli [1],> 250 µM
same,Activity,Staphylococcus aureus [9],inactive
same,MIC90,Staphylococcus aureus [10],38.6 µM
same,MIC,Pseudomonas aeruginosa [2],> 400 µM
same,MIC,Staphylococcus aureus [11],24.2 µM
same,GI50 at 24 h,[12],26.3 µM
same,MIC90,Staphylococcus aureus [13],> 250 µM
same,Ratio,Staphylococcus aureus [14],1
same,Ratio,Staphylococcus aureus [15],1
same,Activity,Staphylococcus aureus [16],inactive
same,MIC,Enterococcus,29 µM
same,Activity,Staphylococcus aureus [17],inactive
same,MIC90,Staphylococcus aureus [18],> 250 µM
same,Activity,[19],Non-toxic
same,MIC90,Staphylococcus aureus [20],4.8 µM
same,logD,[21],4.9
same,microsomal CLint,[22],89 µL/min/mg
same,MBC,Staphylococcus aureus [23],4.8 µM
same,MBC,Staphylococcus aureus [24],4.8 µM
same,Activity,Staphylococcus aureus [25],>=4 log10CFU/ml
same,MIC90,Pseudomonas aeruginosa [3],> 250 µM
same,Activity,Staphylococcus aureus [26],>=4 log10CFU/ml
same,solubility,[27],< 1.6 µg/mL
same,Activity,Staphylococcus aureus [28],>=4 log10CFU/ml
same,MIC90,Staphylococcus aureus [29],4.8 µM
same,Activity,Staphylococcus aureus [30],>=4 log10CFU/ml
same,MIC90,Staphylococcus aureus [31],4.8 µM
same,Activity,Staphylococcus aureus [32],>=4 log10CFU/ml
same,Activity,Staphylococcus aureus [33],inactive
same,MBC,Staphylococcus aureus [34],4.8 µM
same,Ratio,Staphylococcus aureus [35],1
same,solubility,[36],< 1.6 µg/mL
same,MIC,Escherichia coli [4],> 400 µM
same,MIC90,Staphylococcus aureus [37],4.8 µM
same,Activity,Staphylococcus aureus [38],inactive
same,MIC90,Staphylococcus aureus [39],> 250 µM
same,Activity,Staphylococcus aureus [40],inactive
same,Activity,Staphylococcus aureus [41],>=4 log10CFU/ml
same,MBC,Staphylococcus aureus [42],4.8 µM
same,Activity,Staphylococcus aureus [43],>=4 log10CFU/ml
same,Selectivity Index,[44],2
same,logD,[45],> 5.3
same,Ratio,Staphylococcus aureus [46],1
same,Activity,Staphylococcus aureus [47],inactive
same,Selectivity Index,[48],2
same,GI50 at 24 h,[49],28.8 µM
same,Selectivity Index,[50],2
same,Selectivity Index,[51],2
same,microsomal CLint,[52],70 µL/min/mg
same,MIC90,Staphylococcus aureus [53],> 250 µM
same,MBC,Staphylococcus aureus [54],4.8 µM
same,MIC90,Staphylococcus aureus [55],4.8 µM
same,Activity,Staphylococcus aureus [56],inactive
CC1(C)S[C@@H]2[C@H](NC(=O)[C@H](N)c3ccccc3)C(=O)N2[C@H]1C(=O)O [AMPICILLIN],MIC,Pseudomonas aeruginosa [2],366 µM
same,MIC,Staphylococcus aureus [11],183 µM
same,MIC,Enterococcus,11.5 µM
same,MIC90,Staphylococcus aureus [20],0.3 µM
same,MBC,Staphylococcus aureus [23],2 µM
same,MBC,Staphylococcus aureus [24],2 µM
same,MIC90,Staphylococcus aureus [29],0.3 µM
same,MIC90,Staphylococcus aureus [31],0.3 µM
same,MBC,Staphylococcus aureus [34],2 µM
same,MIC,Escherichia coli [4],45.8 µM
same,MIC90,Staphylococcus aureus [37],0.3 µM
same,MBC,Staphylococcus aureus [42],2 µM
same,MBC,Staphylococcus aureus [54],2 µM
same,MIC90,Staphylococcus aureus [55],0.3 µM
N=C(N/N=C/c1ccc(F)c(F)c1)N/N=C/c1ccc(F)c(F)c1,MIC,Pseudomonas aeruginosa [2],> 400 µM
same,MIC,Staphylococcus aureus [11],40.1 µM
same,MIC,Enterococcus,10.7 µM
same,MIC,Escherichia coli [4],> 400 µM
